Reference: PubChem BioAssay (NCI)
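Method: 48-hour compound exposure of cells in 96-well plates, five concentrations, linear interpolation of endpoints. TGI: total growth inhibition.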

How the values were obtained:
Assay in all cases: inhibition of tumour cell growth, NCI panel, 48 h
ACHN renal = tested on: ACHN renal
NCI-H23 lung = tested on: NCI-H23 lung
SN12C renal = tested on: SN12C renal
MALME-3M melanoma = tested on: MALME-3M melanoma
HCC-2998 colon = tested on: HCC-2998 colon
OVCAR-8 ovarian = tested on: OVCAR-8 ovarian
OVCAR-4 ovarian = tested on: OVCAR-4 ovarian
UACC-62 melanoma = tested on: UACC-62 melanoma
786-0 renal = tested on: 786-0 renal
HCT-15 colon = tested on: HCT-15 colon
XF 498 CNS = tested on: XF 498 CNS
KM12 colon = tested on: KM12 colon
M14 melanoma = tested on: M14 melanoma
DMS 114 small cell lung = tested on: DMS 114 small cell lung
SF-268 CNS = tested on: SF-268 CNS
HL-60(TB) leukemia = tested on: HL-60(TB) leukemia
SF-295 CNS = tested on: SF-295 CNS
SNB-75 CNS = tested on: SNB-75 CNS
OVCAR-5 ovarian = tested on: OVCAR-5 ovarian
LOX IMVI melanoma = tested on: LOX IMVI melanoma
HOP-62 NSCLC = tested on: HOP-62 NSCLC
DLD-1 colon = tested on: DLD-1 colon
CAKI-1 renal = tested on: CAKI-1 renal
UACC-257 melanoma = tested on: UACC-257 melanoma
KM20L2 colon = tested on: KM20L2 colon
A498 renal = tested on: A498 renal
EKVX NSCLC = tested on: EKVX NSCLC
UO-31 renal = tested on: UO-31 renal
RXF 393 renal = tested on: RXF 393 renal
NCI-H226 lung = tested on: NCI-H226 lung
SF-539 CNS = tested on: SF-539 CNS
OVCAR-3 ovarian = tested on: OVCAR-3 ovarian
COLO 205 colon = tested on: COLO 205 colon
RPMI-8226 leukemia = tested on: RPMI-8226 leukemia
CCRF-CEM leukemia = tested on: CCRF-CEM leukemia
MOLT-4 leukemia = tested on: MOLT-4 leukemia
IGROV1 ovarian = tested on: IGROV1 ovarian
SK-OV-3 ovarian = tested on: SK-OV-3 ovarian
NCI-H460 lung = tested on: NCI-H460 lung
RXF-631 renal = tested on: RXF-631 renal
K-562 leukemia = tested on: K-562 leukemia
HOP-92 NSCLC = tested on: HOP-92 NSCLC
A549 NSCLC = tested on: A549 NSCLC
NCI-H522 lung = tested on: NCI-H522 lung
SK-MEL-28 melanoma = tested on: SK-MEL-28 melanoma
SK-MEL-5 melanoma = tested on: SK-MEL-5 melanoma
SK-MEL-2 melanoma = tested on: SK-MEL-2 melanoma
TK-10 renal = tested on: TK-10 renal
HT29 colon = tested on: HT29 colon
SNB-78 CNS = tested on: SNB-78 CNS
LXFL 529 NSCLC = tested on: LXFL 529 NSCLC
U251 CNS = tested on: U251 CNS
SW-620 colon = tested on: SW-620 colon

## O=C1O[C@@H](c2ccccc2)C[C@H]1CN1CCOCC1
ACHN renal
  TGI: > 100 µM
NCI-H23 lung
  TGI: 35.4 µM
SN12C renal
  TGI: > 100 µM
MALME-3M melanoma
  TGI: > 100 µM
HCC-2998 colon
  TGI: > 100 µM
OVCAR-8 ovarian
  TGI: > 100 µM
OVCAR-4 ovarian
  TGI: > 100 µM
UACC-62 melanoma
  TGI: > 100 µM
786-0 renal
  TGI: > 100 µM
HCT-15 colon
  TGI: > 100 µM
XF 498 CNS
  TGI: > 100 µM
KM12 colon
  TGI: > 100 µM
M14 melanoma
  TGI: > 100 µM
DMS 114 small cell lung
  TGI: > 100 µM
SF-268 CNS
  TGI: > 100 µM
HL-60(TB) leukemia
  TGI: > 100 µM
SF-295 CNS
  TGI: > 100 µM
SNB-75 CNS
  TGI: > 100 µM
OVCAR-5 ovarian
  TGI: > 100 µM
LOX IMVI melanoma
  TGI: > 100 µM
HOP-62 NSCLC
  TGI: > 100 µM
DLD-1 colon
  TGI: > 100 µM
CAKI-1 renal
  TGI: 41.3 µM
UACC-257 melanoma
  TGI: > 100 µM
KM20L2 colon
  TGI: > 100 µM
A498 renal
  TGI: > 100 µM
EKVX NSCLC
  TGI: > 100 µM
UO-31 renal
  TGI: > 100 µM
RXF 393 renal
  TGI: > 100 µM
NCI-H226 lung
  TGI: > 100 µM
SF-539 CNS
  TGI: > 100 µM
OVCAR-3 ovarian
  TGI: > 100 µM
COLO 205 colon
  TGI: > 100 µM
RPMI-8226 leukemia
  TGI: > 100 µM
CCRF-CEM leukemia
  TGI: > 100 µM
MOLT-4 leukemia
  TGI: > 100 µM
IGROV1 ovarian
  TGI: > 100 µM
SK-OV-3 ovarian
  TGI: > 100 µM
NCI-H460 lung
  TGI: > 100 µM
RXF-631 renal
  TGI: > 100 µM
K-562 leukemia
  TGI: > 100 µM
HOP-92 NSCLC
  TGI: > 100 µM
A549 NSCLC
  TGI: > 100 µM
NCI-H522 lung
  TGI: > 100 µM
SK-MEL-28 melanoma
  TGI: > 100 µM
SK-MEL-5 melanoma
  TGI: > 100 µM
SK-MEL-2 melanoma
  TGI: > 100 µM
TK-10 renal
  TGI: > 100 µM
HT29 colon
  TGI: > 100 µM
SNB-78 CNS
  TGI: > 100 µM
LXFL 529 NSCLC
  TGI: > 100 µM
U251 CNS
  TGI: > 100 µM
SW-620 colon
  TGI: > 100 µM
